Experimental data as given in article PMC5518293, “An Iterative Module in the Azalomycin F Polyketide Synthase Contains a Switchable Enoylreductase Domain” (Angewandte Chemie (International Ed. in English), 2017).

Target: T1, AzlA (Streptomyces sp. 211726, UniProt A0A1W6GWW1)
T1 construct: recombinant multienzyme, loading module (ACPL) plus extension module 1 (KS-AT-DH-ER-KR-ACP); mutant stated expressed in E. coli BAP1, holo-ACP1
Assay: one-pot reconstitution, LC-ESI-HRMS of acyl-ACP1 and of hydrolysed products
Assay type: biochemical
Conditions: extender unit; with Azl4, Azl5, 4-guanidinobutyric acid and added stand-alone holo-ACP1

**Q.** `CC(C)(COP(=O)(O)OP(=O)(O)OC[C@H]1O[C@@H](n2cnc3c(N)ncnc32)[C@H](O)[C@@H]1OP(=O)(O)O)[C@@H](O)C(=O)NCCC(=O)NCCSC(=O)CC(=O)O` [malonyl‐CoA] was tested. Which “one-pot reconstitution, LC-ESI-HRMS of acyl-ACP1 and of hydrolysed products” value did it give?
**A.** recruits malonyl‐CoA as extender unit
